Measurements as given in US7893077B2, “Bisaryl-sulfonamides” (Amgen Inc., priority 2004, dated 2011).

biological target: T1, PPARγ (Homo sapiens, UniProt P37231); assay: PPARγ ligand binding assay utilizing [3H]-BRL 49653 as the radioligand (filtration); details: concentration required to reduce by 50% the specific binding of [3H]-BRL 49653
T1 construct: made in house
T1 sequence (P37231 1-505): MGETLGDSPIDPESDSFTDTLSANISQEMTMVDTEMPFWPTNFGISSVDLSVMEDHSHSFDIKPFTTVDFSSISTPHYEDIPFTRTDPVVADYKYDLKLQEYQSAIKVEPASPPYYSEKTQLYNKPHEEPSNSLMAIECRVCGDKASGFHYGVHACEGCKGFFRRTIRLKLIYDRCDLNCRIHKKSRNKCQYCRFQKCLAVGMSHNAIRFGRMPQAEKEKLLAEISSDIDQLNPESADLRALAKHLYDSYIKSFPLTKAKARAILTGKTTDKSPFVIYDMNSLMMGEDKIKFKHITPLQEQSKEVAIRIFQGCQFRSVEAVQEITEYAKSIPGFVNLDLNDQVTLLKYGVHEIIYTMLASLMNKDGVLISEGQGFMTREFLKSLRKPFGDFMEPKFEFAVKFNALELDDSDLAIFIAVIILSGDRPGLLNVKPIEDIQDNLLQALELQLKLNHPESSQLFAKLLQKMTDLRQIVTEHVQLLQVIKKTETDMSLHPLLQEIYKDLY
Source text: The compounds of the present invention can be evaluated for modulation of the PPARγ receptor using assays such as those described in Jiang, et al., Nature 391:82-86 (1998), Ricote, et al., Nature 391:79-82 (1998) and Lehmann, et al., J. Biol. Chem. 270(12): 12953-12956 (1995). Alternatively, the compounds can be evaluated for their ability to displace radiolabeled BRL 49653 from a PPARγ-GST fusion protein as follows:
PPARγ-GST fusion protein (prepared according to standard procedures), [^3H]-BRL 49653 having 50 Ci/mmol specific activity, Polyfiltronics Unifilter 350 filtration plate and glutathione-Sepharose® beads (from Pharmacia: washed twice with 10× binding buffer in which BSA and DTI can be left out).
Binding buffer (10 mM Tris-HCl, pH 8.0, 50 mM KCl, 10 mM DTT, 0.02% BSA and 0.0 1% NP-40) is added in 80-μL amounts to the wells of the filtration plate. The test compound is then added in 10 μL of DMSO. The PPARγ-GST fusion protein and radiolabeled BRL compound are premixed in binding buffer containing 10 mM DTT and added in 10-μL amounts to the wells of the plate to provide final concentrations of 1 µg/well of PPARγ-GST fusion protein and 10 nM [^3H]-BRL 49653 compound. The plate is incubated for 15 min. Glutathione-agarose bead is added in 50 μL of binding buffer, and the plate is vigorously shaken for one hour. The plate is washed four times with 200 μL/well of binding buffer (without BSA and DTT). The bottom of the plate is sealed and 200 μL/well of scintillation cocktail is added. The top of the plate is then sealed and the radioactivity is determined.
IC50 values are defined as the concentration of test compounds required to reduce by 50% the specific binding of [^3H]-BRL 49653 and are represented by (+)<30 μM; (++)<10 μM; (+++)<1 μM.

SMILES | IC50
CCCC(=O)c1nc(NS(=O)(=O)c2ccc(Cl)cc2Cl)ccc1Sc1ccc(S(=O)(=O)NCC)cc1 [Compound 118, N-[6-Butyryl-5-(4-ethylsulfamoyl-phenylsulfanyl)-pyridin-2-yl]-2,4-dichloro-benzenesulfonamide] | < 1000 nM
O=C(c1nc(NS(=O)(=O)c2ccc(C(F)(F)F)cc2Cl)ccc1Sc1ccc(S(=O)(=O)C2CCCC2)cc1)C1CC1 [Compound 115, 2-Chloro-N-[5-(4-cyclopentanesulfonyl-phenylsulfanyl)-6-cyclopropanecarbonyl-pyridin-2-yl]-4-trifluoromethyl-benzenesulfonamide] | < 1000 nM
COc1nc(NS(=O)(=O)c2ccc(Cl)cc2Cl)ncc1Sc1ccc2ccccc2c1 [Compound 30, 2,4-Dichloro-N-[4-methoxy-5-(naphthalen-2-ylsulfanyl)-pyrimidin-2-yl]-benzenesulfonamide] | < 10000 nM
O=C(c1nc(NS(=O)(=O)c2ccc(Cl)cc2Cl)ccc1Sc1ccc(S(=O)(=O)C2CCCC2)cc1)C1CC1 [Compound 113, 2,4-Dichloro-N-[5-(4-cyclopentanesulfonyl-phenylsulfanyl)-6-cyclopropanecarbonyl-pyridin-2-yl]-benzenesulfonamide] | < 1000 nM
CON(C)C(=O)c1nc(NS(=O)(=O)c2ccc(Cl)cc2Cl)ccc1Sc1ccc(S(=O)(=O)N2CCCCC2)cc1 [Compound 72, 6-(2,4-Dichloro-benzenesulfonylamino)-3-[4-(piperidine-1-sulfonyl)-phenylsulfanyl]-pyridine-2-carboxylic acid methoxy-methyl-amide] | < 1000 nM
Cc1nc(NS(=O)(=O)c2ccc(Cl)cc2Cl)ccc1Sc1ccc(S(=O)(=O)N2CCOCC2)cc1 [Compound 77, 2,4-Dichloro-N-{6-methyl-5-[4-(morpholine-4-sulfonyl) -phenylsulfanyl]-pyridin-2-yl}-benzenesulfonamide] | < 1000 nM
Cc1cc(S(=O)(=O)Nc2cc(C)c(Sc3ccc(S(=O)(=O)N4CCCCC4)cc3)cn2)c(Cl)cc1Cl [Compound 62, 2,4-Dichloro-5-methyl-N-{4-methyl-5-[4-(piperidine-1-sulfonyl)-phenylsulfanyl]-pyridin-2-yl}-benzenesulfonamide] | < 1000 nM
CCCCCc1nc(NS(=O)(=O)c2ccc(Cl)cc2)ncc1Sc1ccc(S(=O)(=O)N2CCCCC2)cc1 [Compound 48, 4-Chloro-N-{4-pentyl-5-[4-(piperidine-1-sulfonyl) -phenylsulfanyl]-pyrimidin-2-yl}-benzenesulfonamide] | < 1000 nM
O=S(=O)(Nc1ccc(Sc2ccc(S(=O)(=O)N3CCOCC3)cc2)c(C(F)(F)F)n1)c1ccc(Cl)cc1Cl [Compound 108, 2,4-Dichloro-N-{5-[4-(morpholine-4-sulfonyl)-phenylsulfanyl]-6-trifluoromethyl-pyridin-2-yl}-benzenesulfonamide] | < 10000 nM
COC(=O)c1nc(NS(=O)(=O)c2ccc(Cl)cc2Cl)ccc1Sc1ccc(S(=O)(=O)N2CCOCC2)cc1 [Compound 76, 6-(2,4-Dichloro-benzenesulfonylamino)-3-[4-(morpholine-4-sulfonyl)-phenylsulfanyl]-pyridine-2-carboxylic acid methyl ester] | < 1000 nM
CCN(CC)S(=O)(=O)c1ccc(Sc2ccc(NS(=O)(=O)c3ccc(C(F)(F)F)cc3Cl)nc2C(=O)C2CC2)cc1 [Compound 100, 2-Chloro-N-[6-cyclopropanecarbonyl-5-(4-diethylsulfamoyl-phenylsulfanyl)-pyridin-2-yl]-4-trifluoromethyl-benzenesulfonamide] | < 1000 nM
CCCCc1nc(NS(=O)(=O)c2ccc(Cl)cc2)ncc1Sc1ccc(S(=O)(=O)N2CCCCC2)cc1 [Compound 44, N-{4-Butyl-5-[4-(piperidine-1-sulfonyl)-phenylsulfanyl]-pyrimidin-2-yl}-4-chloro-benzenesulfonamide] | < 1000 nM
CC(C)S(=O)(=O)c1ccc(Sc2ccc(NS(=O)(=O)c3ccc(Cl)cc3Cl)nc2C(=O)C2CC2)cc1 [Compound 107, 2,4-Dichloro-N-{6-cyclopropanecarbonyl-5-[4-(propane-2-sulfonyl)-phenylsulfanyl]-pyridin-2-yl}-benzenesulfonamide] | < 1000 nM
CCCC(=O)c1nc(NS(=O)(=O)c2ccc(C(F)(F)F)cc2Cl)ccc1Sc1ccc(S(=O)(=O)C(CC)CC)cc1 [Compound 116, N-{6-Butyryl-5-[4-(pentane-3-sulfonyl)-phenylsulfanyl]-pyridin-2-yl}-2-chloro-4-trifluoromethyl-benzenesulfonamide] | < 1000 nM
Cc1cc(S(=O)(=O)Nc2cc(C)c(Sc3ccc(S(=O)(=O)N4CCCCC4)cc3)nn2)c(Cl)cc1Cl [Compound 138, 2,4-Dichloro-5-methyl-N-{5-methyl-6-[4-(piperidine-1-sulfonyl)-phenylsulfanyl]-pyridazin-3-yl}-benzenesulfonamide] | < 1000 nM
CCCCc1nc(NS(=O)(=O)c2ccc(OC)cc2)ncc1Sc1ccc(S(=O)(=O)N2CCCCC2)cc1 [Compound 45, N-{4-Butyl-5-[4-(piperidine-1-sulfonyl)-phenylsulfanyl]-pyrimidin-2-yl}-4-methoxy-benzenesulfonamide] | < 1000 nM

Now from value to molecule:

IC50 | SMILES
< 1000 nM | CCCCc1nc(NS(=O)(=O)c2ccc(C(F)(F)F)cc2Cl)ncc1Sc1ccc(S(=O)(=O)N2CCCCC2)cc1 [Compound 46, N-{4-Butyl-5-[4-(piperidine-1-sulfonyl)-phenylsulfanyl]-pyrimidin-2-yl}-2-chloro-4-trifluoromethyl-benzenesulfonamide]
< 1000 nM | CC(C)NC(=O)c1nc(NS(=O)(=O)c2ccc(Cl)cc2Cl)ccc1Sc1ccc(S(=O)(=O)N2CCCCC2)cc1 [Compound 85, 6-(2,4-Dichloro-benzenesulfonylamino)-3-[4-(piperidine-1-sulfonyl)-phenylsulfanyl]-pyridine-2-carboxylic acid isopropylamide]
< 10000 nM | CC(C)CCNc1nc(NS(=O)(=O)c2ccc(Cl)cc2Cl)ncc1Sc1ccc(S(=O)(=O)N2CCCCC2)cc1 [Compound 21, 2,4-Dichloro-N-{4-(3-methyl-butylamino)-5-[4-(piperidine-1-sulfonyl)-phenylsulfanyl]-pyrimidin-2-yl}-benzenesulfonamide]
< 1000 nM | CCCN(C)c1nc(NS(=O)(=O)c2ccc(Cl)cc2Cl)ncc1Sc1ccc(S(=O)(=O)N2CCCCC2)cc1 [Compound 15, 2,4-Dichloro-N-{4-(methyl-propyl-amino)-5-[4-(piperidine-1-sulfonyl)-phenylsulfanyl]-pyrimidin-2-yl}-benzenesulfonamide]
< 10000 nM | Cc1nc(NS(=O)(=O)c2ccc(C(F)(F)F)cc2Cl)ncc1Sc1ccc(S(=O)(=O)N2CCCCC2)cc1 [Compound 50, 2-Chloro-N-{4-methyl-5-[4-(piperidine-1-sulfonyl) -phenylsulfanyl]-pyrimidin-2-yl}-4-trifluoromethyl-benzenesulfonamide]
< 1000 nM | O=S(=O)(Nc1ncc(Sc2ccc(S(=O)(=O)N3CCCCC3)cc2)c(NCC2CC2)n1)c1ccc(Cl)cc1Cl [Compound 19, 2,4-Dichloro-N-{4-(cyclopropylmethyl-amino)-5-[4-(piperidine-1-sulfonyl)-phenylsulfanyl]-pyrimidin-2-yl}-benzenesulfonamide]
< 10000 nM | CC(C)Nc1nc(NS(=O)(=O)c2ccc(Cl)cc2Cl)ncc1Sc1ccc(S(=O)(=O)N2CCCCC2)cc1 [Compound 17, 2,4-Dichloro-N-{4-isopropylamino-5-[4-(piperidine-1-sulfonyl)-phenylsulfanyl]-pyrimidin-2-yl}-benzenesulfonamide]
< 10000 nM | CCCNc1nc(NS(=O)(=O)c2ccc(OC)cc2)ncc1Sc1ccc(S(=O)(=O)N2CCCCC2)cc1 [Compound 23, 4-Methoxy-N-{5-[4-(piperidine-1-sulfonyl)-phenylsulfanyl]-4-propylamino-pyrimidin-2-yl}-benzenesulfonamide]
< 1000 nM | CCCCc1cc(NS(=O)(=O)c2ccc(Cl)cc2Cl)nnc1Sc1ccc(S(=O)(=O)N2CCCCC2)cc1 [Compound 132, 3-(2′,4′-dichloro)phenylsulfonylamino-5-n-butyl-6-(4″-N-piperidinesulfonyl)phenylthiopyridazine]
